O=c1[nH]cc(F)c(=O)[nH]1
Conditions	solubility (mole fraction)
in 1,4-dioxane, 290.2 K	0.00112
in 1,4-dioxane, 291.3 K	0.00123
in 1,4-dioxane, 300.9 K	0.00158
in 1,4-dioxane, 305.2 K	0.00176
in 1,4-dioxane, 306.4 K	0.00187
in 1,4-dioxane, 310.4 K	0.00205
in 1,4-dioxane, 313.3 K	0.00218
in 1,4-dioxane, 313.9 K	0.00225
in 1,4-dioxane, 318 K	0.00247
in 1,4-dioxane, 319.5 K	0.00258
in 1,4-dioxane, 322.8 K	0.00284
in 1,4-dioxane, 329.8 K	0.00332
in THF, 279.6 K	0.00246
in THF, 287 K	0.00273
in THF, 293.2 K	0.00289
in THF, 303.8 K	0.00328
in THF, 308.7 K	0.00349
in THF, 314.6 K	0.00367
in THF, 325.2 K	0.00418
in THF, 328.6 K	0.00454
in acetone, 282.9 K	0.00152
in acetone, 290.2 K	0.00175
in acetone, 298.4 K	0.00199
in acetone, 302.5 K	0.00219
in acetone, 305.1 K	0.00229
in acetone, 307.4 K	0.00244
in acetone, 315.2 K	0.0028
in acetone, 316.9 K	0.00299
in acetone, 322.4 K	0.00304
in acetonitrile, 290.3 K	0.00046
in acetonitrile, 294.6 K	0.00053
in acetonitrile, 299.1 K	0.00062
in acetonitrile, 300.3 K	0.00066
in acetonitrile, 306.6 K	0.00081
in acetonitrile, 307.6 K	0.00083
in acetonitrile, 316 K	0.00102
in acetonitrile, 320.2 K	0.00121
in acetonitrile, 329 K	0.00143
in acetonitrile, 332.3 K	0.00162
in ethanol, 281.1 K	0.00099
in ethanol, 286.9 K	0.00124
in ethanol, 291.2 K	0.00137
in ethanol, 297.7 K	0.00167
in ethanol, 306.2 K	0.00206
in ethanol, 309.1 K	0.00216
in ethanol, 314.8 K	0.0026
in ethanol, 315.1 K	0.00267
in ethanol, 322.8 K	0.0032
in ethanol, 323.7 K	0.00329
in ethanol, 325.6 K	0.00366
in ethanol, 329.9 K	0.00399
in ethyl acetate, 291.1 K	0.00041
in ethyl acetate, 297 K	0.00048
in ethyl acetate, 300.6 K	0.00054
in ethyl acetate, 310.8 K	0.00063
in ethyl acetate, 320.3 K	0.00077
in ethyl acetate, 330.6 K	0.00099
in isopropanol, 282.1 K	0.00085
in isopropanol, 284.6 K	0.00089
in isopropanol, 286.8 K	0.00102
in isopropanol, 294.9 K	0.00119
in isopropanol, 301.3 K	0.00147
in isopropanol, 302.4 K	0.00163
in isopropanol, 308 K	0.00188
in isopropanol, 311.6 K	0.00217
in isopropanol, 316.2 K	0.00237
in isopropanol, 318 K	0.00258
in isopropanol, 323 K	0.00301
in isopropanol, 327.5 K	0.00346
in isopropanol, 330 K	0.00381
in methanol, 280 K	0.00165
in methanol, 287.7 K	0.00216
in methanol, 295.8 K	0.00289
in methanol, 306.8 K	0.00379
in methanol, 318.4 K	0.00502
in methanol, 326 K	0.00581
in methanol, 328.8 K	0.00661
in n-butanol, 280.1 K	0.00058
in n-butanol, 283 K	0.00059
in n-butanol, 287.8 K	0.00086
in n-butanol, 299.5 K	0.00103
in n-butanol, 303.4 K	0.00121
in n-butanol, 306.3 K	0.00141
in n-butanol, 314.8 K	0.00182
in n-butanol, 325.8 K	0.0026
in n-butanol, 327 K	0.00267
in n-butanol, 331.5 K	0.00313
in n-propanol, 280.8 K	0.00082
in n-propanol, 282.4 K	0.00089
in n-propanol, 291.2 K	0.00098
in n-propanol, 294.5 K	0.00108
in n-propanol, 298.4 K	0.00121
in n-propanol, 302.2 K	0.00123
in n-propanol, 308.6 K	0.00149
in n-propanol, 313 K	0.00172
in n-propanol, 315.1 K	0.00179
in n-propanol, 318.3 K	0.00208
in n-propanol, 322.3 K	0.00224
in n-propanol, 324.3 K	0.00245
in n-propanol, 326.2 K	0.00263
in water, 280.1 K	0.00091
in water, 282.5 K	0.00093
in water, 290.8 K	0.00124
in water, 294.5 K	0.00147
in water, 304.4 K	0.0021
in water, 312.1 K	0.00288
in water, 317.5 K	0.00337
in water, 323 K	0.00402
